SMILES strings stand for the structures. Where a name gives a salt, the structure may show the parent alone.

Broadly, the Ki is the dissociation constant of the complex between target and ligand, obtained from inhibition or displacement.

In one test the target is human SERT (Homo sapiens (Human), UniProt P31645). The experiment in a line: human SERT binding assay with [3H]-citalopram on HEK-293 membranes. The following applies: read-out: hSERT binding Ki. How it is done:
Receptor binding was performed using membrane fractions prepared from the HEK-293 cell line recombinantly expressing rat 5-HT7 receptors (NCBI accession NM_022938). Compound affinity for the rat 5-HT7 receptor subtype was evaluated by competitive radioligand binding assays using 5-carboxamido[^3H]tryptamine ([^3H]5-CT) (Amersham Biosciences, cat. 90000403) detection. HitHunter™ cAMP assays are in-vitro based competitive immunoassays. The assay was performed on the HEK-293 cell line stably transfected with r5-HT7 receptor. Cells were pre-incubated with test compounds for 10 minutes. For antagonist testing, the cells were then challenged with 100 nM 5-CT for 20 minutes. Cells were then lysed and cAMP measured according to manufacturers protocol (Amersham, cat. NET791250UC) or [^3H]mesulergine (Amersham, cat. TRK1041). The assay was performed on membranes prepared from HEK-293 cells stably transfected with h5-HT6. Following centrifugation, membranes were resuspended and incubated for 60 min at room temperature with 1.7 nM [^3H]LSD in the presence of increasing concentration of test compounds. Nonspecific binding was defined in the presence of 10 μM clozapine (Tocris, cat. TRK1068). Homogenized HEK-293 membranes expressing the human SERT were incubated in 50 mM Tris-HCl (pH 7.5), 120 mM NaCl, 5 mM KCl with [^3H]-citalopram (3 nM) with or without test compounds. Nonspecific binding was determined in the presence of 10 μM fluoxetine. Radioactivity readouts and Ki values were performed as previously described for r5-HT7. […] Compounds were assayed in their free form or as salts, as indicated in the Examples section above.

In a further test the target is rat 5-HT7 receptor (Rattus norvegicus (Rat), UniProt P32305). The experiment in a line: r5-HT7 binding assay, competitive radioligand binding with [3H]5-CT. Put shortly:
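Whole r5-HT7-transfected HEK-293 cells first received test compound for 10 min. They were then exposed to 100 nM 5-CT for 20 min before lysis and competitive immunoassay of cAMP. Affinity came from displacement of [3H]5-CT on membranes of the same recombinant line, expressed as Ki.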

[1] abbreviates: rat 5-HT7 receptor, HEK-293 membranes.

Sequence of human SERT (P31645 whole entry): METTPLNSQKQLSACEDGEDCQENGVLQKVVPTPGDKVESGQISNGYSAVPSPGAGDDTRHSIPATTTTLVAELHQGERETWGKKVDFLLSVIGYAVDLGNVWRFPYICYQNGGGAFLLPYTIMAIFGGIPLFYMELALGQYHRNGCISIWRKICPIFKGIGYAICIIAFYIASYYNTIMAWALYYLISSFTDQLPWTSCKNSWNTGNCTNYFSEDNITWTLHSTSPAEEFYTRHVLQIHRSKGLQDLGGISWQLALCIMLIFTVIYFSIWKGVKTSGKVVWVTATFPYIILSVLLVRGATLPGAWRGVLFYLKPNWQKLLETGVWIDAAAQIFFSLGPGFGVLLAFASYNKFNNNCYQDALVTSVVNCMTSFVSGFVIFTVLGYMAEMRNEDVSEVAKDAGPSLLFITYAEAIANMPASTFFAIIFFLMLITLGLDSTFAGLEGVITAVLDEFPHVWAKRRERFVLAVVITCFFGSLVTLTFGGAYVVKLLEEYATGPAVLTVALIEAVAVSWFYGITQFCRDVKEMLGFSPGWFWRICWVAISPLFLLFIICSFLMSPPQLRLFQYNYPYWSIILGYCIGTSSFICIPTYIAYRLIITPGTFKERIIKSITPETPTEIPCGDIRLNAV
Sequence of rat 5-HT7 receptor (P32305 1-435): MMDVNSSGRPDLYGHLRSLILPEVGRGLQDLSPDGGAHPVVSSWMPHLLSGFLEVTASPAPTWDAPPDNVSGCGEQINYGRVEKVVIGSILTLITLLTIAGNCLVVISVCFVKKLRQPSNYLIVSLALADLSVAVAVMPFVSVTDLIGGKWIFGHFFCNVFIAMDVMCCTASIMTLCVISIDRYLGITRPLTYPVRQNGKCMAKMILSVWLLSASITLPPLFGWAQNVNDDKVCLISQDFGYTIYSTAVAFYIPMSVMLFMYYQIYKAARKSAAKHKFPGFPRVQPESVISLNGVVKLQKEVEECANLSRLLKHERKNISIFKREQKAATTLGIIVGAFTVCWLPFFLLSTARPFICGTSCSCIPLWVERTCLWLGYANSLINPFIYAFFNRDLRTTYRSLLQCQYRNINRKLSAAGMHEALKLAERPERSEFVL

For `Clc1ccc2c(c1)CC(Oc1ccc(Cl)cc1OC1CNC1)C2` (stereo not drawn) [Example 176, 3-[5-Chloro-2-(5-chloro-indan-2-yloxy)-phenoxy]-azetidine], the Ki is 75 nM on human SERT and 24 nM at rat 5-HT7 receptor (setting [1]).

In the case of `COc1cccc2c1CC(Oc1ccc(Cl)cc1OC1CNC1)C2` (stereo not drawn) [Example 178, 3-[5-Chloro-2-(4-methoxy-indan-2-yloxy)-phenoxy]-azetidine], the Ki on human SERT was found to be 131 nM; on rat 5-HT7 receptor (setting [1]), 17 nM.

`Cc1nc(-c2cccc(COc3ccc(Cl)cc3OC3CNC3)c2)no1` [Example 31, 3-[3-[2-(Azetidin-3-yloxy)-4-chloro-phenoxymethyl]-phenyl]-5-methyl-[1,2,4]oxadiazole hydrochloride]: the Ki on human SERT came out at 90 nM; at rat 5-HT7 receptor (setting [1]) it was 100 nM.

As for `CC(Oc1ccc(Cl)cc1OC1CN(C(C)(C)C)C1)c1cccc(C(F)(F)F)c1` (stereo not drawn) [Example 231, 1-tert-Butyl-3-[5-chloro-2-[1-(3-trifluoromethyl-phenyl)-ethoxy]-phenoxy]-azetidine], the Ki was found to be 4480 nM at human SERT and 15 nM at rat 5-HT7 receptor (rat 5-HT7, HEK-293 membranes).

For the compound `FC1(F)Oc2ccc(COc3ccc(Cl)cc3OC3CNC3)cc2O1` [Example 86, 3-[5-Chloro-2-(2,2-difluoro-benzo[1,3]dioxol-5-ylmethoxy)-phenoxy]-azetidine], the inhibitory constant (Ki) on human SERT was determined as 121 nM; at rat 5-HT7 receptor (setting [1]), 38 nM.

On to `CC(Oc1ccc(Cl)cc1OC1CNC1)c1ccc(F)cc1` (racemic) [Example 124, (±)-3-[5-Chloro-2-[1-(4-fluoro-phenyl)-ethoxy]-phenoxy]-azetidine], for which the Ki was found to be 20 nM at human SERT and 43 nM on rat 5-HT7 receptor (setting [1]).

For the compound `Clc1ccc(OCC2CCc3ccccc3O2)c(OC2CNC2)c1` (stereo not drawn) [Example 165, 3-[5-Chloro-2-(chroman-2-ylmethoxy)-phenoxy]-azetidine], the Ki amounted to 95 nM at human SERT and 16 nM on rat 5-HT7 receptor (setting [1]).

For `CS(=O)(=O)c1cccc(COc2ccc(Cl)cc2OC2CNC2)c1` [Example 27, 3-[5-Chloro-2-(3-methanesulfonyl-benzyloxy)-phenoxy]-azetidine], the values for the Ki on human SERT and at rat 5-HT7 receptor (setting [1]) were 1680 nM and 229 nM, respectively.

`Fc1ccc(OCc2ccc(C(F)(F)F)o2)c(OC2CNC2)c1` [Example 208, 3-[5-Fluoro-2-(5-trifluoromethyl-furan-2-ylmethoxy)-phenoxy]-azetidine]: the figures for the Ki at human SERT and on rat 5-HT7 receptor (setting [1]) were 303 nM and 365 nM, respectively.

For the compound `CC(Oc1ccc(Cl)cc1OC1CNC1)c1ccccc1F` (racemic) [Example 121, (±)-3-[5-Chloro-2-[1-(2-fluoro-phenyl)-ethoxy]-phenoxy]-azetidine], the values for the inhibitory constant (Ki) on human SERT and on rat 5-HT7 receptor (setting [1]) were 164 nM and 33 nM, respectively.

Take `Clc1ccc(OCc2cc3ccccc3o2)c(OC2CNC2)c1` [Example 89, 3-[2-(Benzofuran-2-ylmethoxy)-5-chloro-phenoxy]-azetidine]: the Ki on human SERT came out at 242 nM; on rat 5-HT7 receptor (setting [1]) it was 25 nM.

Take `CC(Oc1ccc(Cl)cc1OC1CNC1)c1ccc(F)c(C(F)(F)F)c1` (racemic) [Example 117, (±)-3-[5-Chloro-2-[1-(4-fluoro-3-trifluoromethyl-phenyl)-ethoxy]-phenoxy]-azetidine]: the inhibition constant (Ki) at human SERT amounted to 71 nM; on rat 5-HT7 receptor (setting [1]), 41 nM.

For the compound `Cc1ccc2c(c1)CCC2Oc1ccc(Br)cc1OC1CNC1` (racemic) [Example 155, (±)-3-[5-Bromo-2-(5-methyl-indan-1-yloxy)-phenoxy]-azetidine], the figures for the Ki on human SERT and on rat 5-HT7 receptor (setting [1]) were 45 nM and 19 nM, respectively.

For `Clc1ccc(Oc2nc3ccccc3o2)c(OC2CNC2)c1` [Example 262, 2-[2-(Azetidin-3-yloxy)-4-chloro-phenoxy]-benzooxazole], the Ki at human SERT turned out to be 112 nM; on rat 5-HT7 receptor (rat 5-HT7, HEK-293 membranes), 31 nM.

Regarding `Cn1nnc2ccc(COc3ccc(Cl)cc3OC3CNC3)cc21` [Example 85, 6-[2-(Azetidin-3-yloxy)-4-chloro-phenoxymethyl]-1-methyl-1H-benzotriazole], the inhibition constant (Ki) on human SERT turned out to be 404 nM; at rat 5-HT7 receptor (setting [1]), 95 nM.

In the case of `FC(F)(F)c1ccc(COc2ccc(Cl)cc2OC2CNC2)c(C(F)(F)F)c1` [Example 45, 3-[2-(2,4-Bis-trifluoromethyl-benzyloxy)-5-chloro-phenoxy]-azetidine], the inhibition constant (Ki) came to 197 nM at human SERT and 3160 nM at rat 5-HT7 receptor (setting [1]).

As to `CC(C)(C)N1CC(Oc2cc(Cl)ccc2OCc2cccc(C(F)(F)F)c2)C1` [Example 230, 1-tert-Butyl-3-[5-chloro-2-(3-trifluoromethyl-benzyloxy)-phenoxy]-azetidine], the Ki at human SERT was determined as 1200 nM; at rat 5-HT7 receptor (rat 5-HT7, HEK-293 membranes), 6 nM.

In the case of `FCC(Oc1ccc(Br)cc1OC1CNC1)c1ccccc1` (stereo not drawn) [Example 142, 3-[5-Bromo-2-(2-fluoro-1-phenyl-ethoxy)-phenoxy]-azetidine], the Ki is 613 nM on human SERT and 91 nM at rat 5-HT7 receptor (setting [1]).

Take `FC(F)(F)c1ccc(COc2ccc(Cl)cc2OC2CNC2)cc1` [Example 43, 3-[5-Chloro-2-(4-trifluoromethyl-benzyloxy)-phenoxy]-azetidine]: the Ki at human SERT worked out at 86 nM; at rat 5-HT7 receptor (setting [1]), 15 nM.

With `C[C@@H]1[C@@H](Oc2ccc(Cl)cc2OC2CNC2)CN1Cc1ccccc1` (racemic) [Example 223, (±)-3-[5-Chloro-2-(trans-1-benzyl-2-methyl-azetidin-3-ol)-phenoxy]-azetidine], the Ki on human SERT amounted to 9000 nM; at rat 5-HT7 receptor (rat 5-HT7, HEK-293 membranes), 145 nM.

For the compound `CC(Oc1ccc(Cl)cc1OC1CCNCC1)c1cccc(Cl)c1` (racemic) [Example 136, (±)-4-[5-Chloro-2-[1-(3-chloro-phenyl)-ethoxy]-phenoxy]-piperidine], the results for the inhibition constant (Ki) at human SERT and on rat 5-HT7 receptor (setting [1]) were 98 nM and 29 nM, respectively.

For the compound `CC(Oc1ccc(Cl)cc1OC1CN(C)C1)c1cccc(C(F)(F)F)c1` (racemic) [Example 109, (±)-3-[5-Chloro-2-[1-(3-trifluoromethyl-phenyl)-ethoxy]-phenoxy]-1-methyl-azetidine], the Ki at human SERT came to 2900 nM; at rat 5-HT7 receptor (setting [1]) it was 5 nM.

As to `CC(Oc1ccc(Cl)cc1OC1CNC1)c1nc2ccccc2s1` (stereo not drawn) [Example 131, 2-[1-[2-(Azetidin-3-yloxy)-4-chloro-phenoxy]-ethyl]-benzothiazole], the Ki at human SERT is 1360 nM; on rat 5-HT7 receptor (setting [1]) it was 73 nM.

For `Clc1ccc(OC2CC(c3ccccc3)C2)c(OC2CNC2)c1` (stereo not drawn) [Example 228, 3-[5-Chloro-2-(3-phenyl-cyclobutoxy)-phenoxy]-azetidine], the Ki on human SERT is 72 nM; on rat 5-HT7 receptor (rat 5-HT7, HEK-293 membranes), 9 nM.

For the compound `FC(F)(F)Oc1ccc(COc2ccc(Cl)cc2OC2CNC2)cc1` [Example 42, 3-[5-Chloro-2-(4-trifluoromethoxy-benzyloxy)-phenoxy]-azetidine], the Ki at human SERT was 578 nM; at rat 5-HT7 receptor (setting [1]), 35 nM.

On to `CC(Oc1ccc(Br)cc1OC1CNC1)c1cccc(OC(F)(F)F)c1` (racemic) [Example 110, (±)-3-[5-Bromo-2-[1-(3-trifluoromethoxy-phenyl)-ethoxy]-phenoxy]-azetidine], for which the Ki amounted to 554 nM on human SERT and 90 nM at rat 5-HT7 receptor (setting [1]).

Regarding `FC(F)(F)c1ccc(COc2ccc(Br)cc2CC2CNC2)o1` [Example 232, 3-[5-Bromo-2-(5-trifluoromethyl-furan-2-ylmethoxy)-benzyl]-azetidine], the Ki was determined as 1 nM at human SERT and 3 nM on rat 5-HT7 receptor (rat 5-HT7, HEK-293 membranes).

Turning to `C[C@H](Oc1ccc(Cl)cc1OC1CNC1)c1cccc(C(F)(F)F)c1` [Example 102, (S)-3-[5-Chloro-2-[1-(3-trifluoromethyl-phenyl)-ethoxy]-phenoxy]-azetidine trifluoroacetate], the inhibition constant Ki at human SERT turned out to be 954 nM; on rat 5-HT7 receptor (setting [1]) it was 376 nM.

For `CC1(Oc2cc(Br)ccc2OCc2ccc(C(F)(F)F)o2)CNC1` [Example 216], the Ki on human SERT worked out at 36 nM; on rat 5-HT7 receptor (rat 5-HT7, HEK-293 membranes), 16 nM.

As to `Clc1ccc(OCc2ccc3ncsc3c2)c(OC2CNC2)c1` [Example 84, 6-[2-(Azetidin-3-yloxy)-4-chloro-phenoxymethyl]-benzothiazole], the results for the Ki at human SERT and on rat 5-HT7 receptor (setting [1]) were 61 nM and 34 nM, respectively.

Regarding `Clc1ccc(OCc2csc(-c3cccs3)n2)c(OC2CNC2)c1` [Example 28, 4-[2-(Azetidin-3-yloxy)-4-chloro-phenoxymethyl]-2-thiophen-2-yl-thiazole], the Ki is 683 nM at human SERT and 49 nM on rat 5-HT7 receptor (setting [1]).

Take `CC(C)(C)N1CC(Oc2cc(Br)ccc2OCc2cccc(F)c2)C1` [Example 229, 3-[5-Bromo-2-(3-fluoro-benzyloxy)-phenoxy]-1-tert-butyl-azetidine]: the Ki on human SERT worked out at 925 nM; at rat 5-HT7 receptor (rat 5-HT7, HEK-293 membranes) it was 3 nM.

On rat 5-HT7 receptor (rat 5-HT7, HEK-293 membranes), `Clc1ccc(Oc2nc3ccccc3s2)c(OC2CNC2)c1` [Example 261, 2-[2-(Azetidin-3-yloxy)-4-chloro-phenoxy]-benzothiazole] yielded a Ki of 1600 nM.

`CC(Oc1ccc(Cl)cc1OC1CNC1)c1ccc(F)c(F)c1` (racemic) [Example 128, (±)-3-[5-Chloro-2-[1-(3,4-difluoro-phenyl)-ethoxy]-phenoxy]-azetidine trifluoroacetate]: affinity on rat 5-HT7 receptor (setting [1]) was put at a Ki of 127 nM.

Source of the values: patent US9981909B2 (Janssen Pharmaceutica NV, priority 2008, dated 2018).
